From ChEMBL document CHEMBL1122080, “2- and 6-methyl-1,4-naphthoquinone derivatives and potential bioreductive alkylating agents” (1982) come the findings set out here.

Assay type in all cases: functional
Assay [1] deals with Mus musculus. Description: Ratio of the survival time of treated to control animals at dose 5 mg/kg.
Assay [2] has as its system Mus musculus. Description: Average weight change in mice bearing sarcoma 180 ascites cells at dose 20 mg/kg.
For assay [3], the system named is Mus musculus. Kind of assay: Ratio of the survival time of treated to control animals at dose 10 mg/kg.
In assay [4] the test system is Mus musculus. Kind of assay: Average weight change in mice bearing sarcoma 180 ascites cells at dose 5 mg/kg.
Assay [5] relates to Mus musculus. Kind of assay: Ratio of the survival time of treated to control animals at dose 20 mg/kg.
The subject of assay [6] is Mus musculus. Description: Average weight change in mice bearing sarcoma 180 ascites cells at dose 10 mg/kg.
The test system of assay [7] is Mus musculus. Kind of assay: Average weight change in mice bearing sarcoma 180 ascites cells at dose 2.5 mg/kg.
The subject of assay [8] is Mus musculus. Kind of assay: Ratio of the survival time of treated to control animals at dose 2.5 mg/kg.

For the compound `CS(=O)(=O)OCc1ccc2c(c1)C(=O)C=CC2=O`, the T/C in the assay on Mus musculus [1] came out at 1.71; with Mus musculus [3] it was 1.43; in the assay on Mus musculus [5], 1.44. For the same compound, the values for the Average weight change with Mus musculus [2], in the assay with Mus musculus [4] and in the assay with Mus musculus [6] were -13.3%, -6.3% and -11.8%, respectively.

For the compound `CCOCc1ccc2c(c1)C(=O)C=CC2=O`, the values for the T/C with Mus musculus [1], in the assay on Mus musculus [3] and with Mus musculus [5] were 1.32, 0.97 and 0.42, respectively. Moreover, the results for the Average weight change with Mus musculus [4] and with Mus musculus [6] were -6.4% and -10.3%, respectively.

As for `CNC(=O)OCc1ccc2c(c1)C(=O)C=CC2=O`, the T/C in the assay on Mus musculus [1] was 1.71; in the assay on Mus musculus [3], 1.61; with Mus musculus [5], 0.81. Moreover, the Average weight change with Mus musculus [2] is listed as -10.8%; in the assay on Mus musculus [4], -7.6%; in the assay with Mus musculus [6], -7.8%.

For the compound `CC1=CC(=O)c2ccccc2C1=O` [MENADIONE], the T/C with Mus musculus [1] worked out at 0.85; in the assay on Mus musculus [3] it was 1.03; in the assay with Mus musculus [5] it was 1.34. Besides, the values for the Average weight change in the assay with Mus musculus [2], in the assay with Mus musculus [4] and with Mus musculus [6] were -2%, 18.7% and 17.3%, respectively.

For `CS(=O)(=O)OCC1=CC(=O)c2ccccc2C1=O`, the T/C turned out to be 1.92 in the assay on Mus musculus [1], 1.57 in the assay on Mus musculus [3] and 1.41 in the assay on Mus musculus [5]. For the same compound, the Average weight change is on record as -8.8% with Mus musculus [2], -6.3% in the assay on Mus musculus [4] and -8.3% in the assay on Mus musculus [6].

Consider `CNC(=O)OCC1=CC(=O)c2ccccc2C1=O`, for which the values for the T/C in the assay on Mus musculus [1], with Mus musculus [3] and in the assay with Mus musculus [5] were 1.39, 1.51 and 0.51, respectively. The results for the Average weight change in the assay on Mus musculus [2], in the assay with Mus musculus [4] and in the assay with Mus musculus [6] were -11.4%, -12.6% and -10.5%, respectively.

Take `O=C1C=CC(=O)c2cc(CCl)ccc21`: the T/C worked out at 1.38 in the assay with Mus musculus [1], 1.05 with Mus musculus [3] and 0.22 in the assay with Mus musculus [5]. Moreover, the figures for the Average weight change in the assay on Mus musculus [4] and in the assay on Mus musculus [6] were -10.4% and -13.5%, respectively.

For `COCC1=CC(=O)c2ccccc2C1=O`, the figures for the T/C in the assay on Mus musculus [1], in the assay with Mus musculus [3] and in the assay on Mus musculus [5] were 0.98, 1.38 and 1.07, respectively. In addition, the Average weight change is reported as -19% with Mus musculus [2], 17% with Mus musculus [4] and 1.6% in the assay with Mus musculus [6].

Consider `CC(=O)OCc1ccc2c(c1)C(=O)C=CC2=O`, for which the values for the T/C with Mus musculus [1], in the assay on Mus musculus [3] and with Mus musculus [5] were 1.35, 0.93 and 0.48, respectively. In addition, the Average weight change was -7.4% in the assay on Mus musculus [2] and -2.9% with Mus musculus [4].

In the case of `O=C1C=CC(=O)c2cc(CO)ccc21`, the T/C in the assay on Mus musculus [3] was determined as 0.17; in the assay on Mus musculus [8], 1.16. In addition, the Average weight change in the assay on Mus musculus [7] is listed as -9.1%.

Turning to `O=C1C=C(CCl)C(=O)c2ccccc21`, the T/C in the assay on Mus musculus [1] is 1.4; in the assay on Mus musculus [3] it was 1.47; in the assay on Mus musculus [5], 1.3. For the same compound, the Average weight change in the assay on Mus musculus [2] is -16.4%; in the assay with Mus musculus [4], -2%; with Mus musculus [6], -9.8%.

Regarding `O=C1C=CC(=O)c2cc(CBr)ccc21`, the T/C with Mus musculus [1] is recorded as 1.46; in the assay with Mus musculus [3], 1.42; in the assay with Mus musculus [5], 0.57; in the assay on Mus musculus [8], 2.07. The Average weight change with Mus musculus [2] was -12.5%; in the assay on Mus musculus [4], -7.8%; in the assay on Mus musculus [7], -4.2%; in the assay on Mus musculus [6] it was -11.3%.

With `Cc1ccc(S(=O)(=O)OCC2=CC(=O)c3ccccc3C2=O)cc1`, the T/C in the assay on Mus musculus [1] stood at 1.77; in the assay on Mus musculus [3] it was 2.16; with Mus musculus [5], 1.62. The Average weight change is on record as -7.4% with Mus musculus [2], 2.8% with Mus musculus [4] and -4.4% in the assay on Mus musculus [6].

Take `O=C(NCCCl)OCC1=CC(=O)c2ccccc2C1=O`: the T/C with Mus musculus [1] came out at 2.08; in the assay with Mus musculus [3] it was 1.71; with Mus musculus [5] it was 1.96. Further, the values for the Average weight change in the assay on Mus musculus [2], in the assay on Mus musculus [4] and in the assay on Mus musculus [6] were -13.8%, -4.6% and -11.4%, respectively.

Consider `Cc1ccc(S(=O)(=O)OCc2ccc3c(c2)C(=O)C=CC3=O)cc1`, for which the T/C came out at 1.44 in the assay on Mus musculus [1], 1.82 in the assay on Mus musculus [3] and 1.64 with Mus musculus [5]. Moreover, the Average weight change with Mus musculus [2] was -15.2%; in the assay with Mus musculus [4] it was -3.8%; in the assay with Mus musculus [6] it was -11.6%.

Regarding `Cc1ccc2c(c1)C(=O)C=CC2=O`, the T/C came out at 1.09 in the assay with Mus musculus [1], 0.38 in the assay with Mus musculus [3] and 0.26 in the assay on Mus musculus [5]. Moreover, the Average weight change in the assay with Mus musculus [4] is listed as -11.5%; in the assay with Mus musculus [6] it was -11.1%.

For the compound `O=C1C=C(CO)C(=O)c2ccccc21`, the T/C with Mus musculus [1] was 1.16; with Mus musculus [3], 0.45; with Mus musculus [5], 0.22. For the same compound, the values for the Average weight change with Mus musculus [4] and in the assay with Mus musculus [6] were -6.4% and -15.2%, respectively.

On to `O=C1C=C(CBr)C(=O)c2ccccc21`, for which the T/C in the assay on Mus musculus [1] was found to be 1.73; in the assay with Mus musculus [3] it was 1.49; with Mus musculus [5], 1.69; in the assay on Mus musculus [8], 1.61. Also, the Average weight change in the assay with Mus musculus [2] is reported as -9.1%; in the assay with Mus musculus [4], -5.4%; with Mus musculus [7], 1.7%; with Mus musculus [6] it was -7.7%.

On to `CC(=O)OCC1=CC(=O)c2ccccc2C1=O`, for which the T/C in the assay with Mus musculus [1] amounted to 1.66; in the assay on Mus musculus [3] it was 1.62; in the assay on Mus musculus [5], 0.7. The Average weight change with Mus musculus [2] is -10.2%; with Mus musculus [4], -9.3%; in the assay on Mus musculus [6], -14.4%.

`O=C(NCCCl)OCc1ccc2c(c1)C(=O)C=CC2=O`: the T/C came to 1.47 with Mus musculus [1], 1.63 in the assay on Mus musculus [3] and 0.5 with Mus musculus [5]. Moreover, the Average weight change in the assay on Mus musculus [2] is given as -17.3%; with Mus musculus [4], -9%; with Mus musculus [6], -11.7%.
